Laboratory results: patent US20260297106A1, “SPIROCYCLIC SUBSTITUTED OXOISOINDOLINYL PIPERIDINE-2,6-DIONE COMPOUND” (Bristol-Myers Squibb Company, priority 2023, published 2026)

Tests used:
IKZF4 Eos = molecular target: T1, IKZF4 Eos (Homo sapiens, UniProt Q96SW2+Q9H2S9); test: Human Regulatory T Cell Reprogramming Assay (IKZF4 Eos); format: cell-based; conditions: CD4+ CD127low CD25+ Treg cells, 12-13 days; for DC50: concentration reducing protein level by 50% vs DMSO; for Dmax: Regulatory T cell, human, read-out: Maximum Observed Degradation IKZF4 Eos
T1 construct: T cells were isolated from fresh healthy leukopaks; endogenous in cells; host or cells: FACS-sorted primary human CD4+ CD127low CD25+ Treg cells from healthy leukopaks
T1 sequence (Q9H2S9 whole entry): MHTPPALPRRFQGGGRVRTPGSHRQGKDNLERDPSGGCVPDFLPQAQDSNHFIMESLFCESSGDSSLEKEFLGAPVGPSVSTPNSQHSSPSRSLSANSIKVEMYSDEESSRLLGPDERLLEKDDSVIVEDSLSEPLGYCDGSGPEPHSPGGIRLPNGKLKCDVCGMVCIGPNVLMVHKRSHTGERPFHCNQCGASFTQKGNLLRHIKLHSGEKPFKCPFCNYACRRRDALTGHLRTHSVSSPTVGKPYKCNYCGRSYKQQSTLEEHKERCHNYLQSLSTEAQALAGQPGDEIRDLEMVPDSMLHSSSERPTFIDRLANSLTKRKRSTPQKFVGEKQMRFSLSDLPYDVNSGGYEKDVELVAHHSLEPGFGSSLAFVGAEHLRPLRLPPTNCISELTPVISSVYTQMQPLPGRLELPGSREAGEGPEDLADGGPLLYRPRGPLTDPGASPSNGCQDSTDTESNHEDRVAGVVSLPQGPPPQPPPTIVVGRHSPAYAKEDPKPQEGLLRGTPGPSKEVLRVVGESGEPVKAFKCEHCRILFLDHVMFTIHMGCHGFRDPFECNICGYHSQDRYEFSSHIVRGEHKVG
T1 sequence (Q96SW2 whole entry): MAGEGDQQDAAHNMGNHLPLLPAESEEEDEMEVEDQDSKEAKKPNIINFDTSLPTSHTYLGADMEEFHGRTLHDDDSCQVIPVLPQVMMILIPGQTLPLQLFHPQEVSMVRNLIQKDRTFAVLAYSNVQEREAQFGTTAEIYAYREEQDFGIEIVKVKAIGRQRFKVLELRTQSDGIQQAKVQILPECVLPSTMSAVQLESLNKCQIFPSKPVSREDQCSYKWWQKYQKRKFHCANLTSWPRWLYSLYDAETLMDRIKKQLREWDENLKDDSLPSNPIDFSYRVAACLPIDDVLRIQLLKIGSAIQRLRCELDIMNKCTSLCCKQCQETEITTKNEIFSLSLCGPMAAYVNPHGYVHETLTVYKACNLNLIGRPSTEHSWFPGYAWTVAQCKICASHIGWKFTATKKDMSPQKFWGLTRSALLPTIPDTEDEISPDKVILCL
T1 sequence (Q16531 whole entry partner): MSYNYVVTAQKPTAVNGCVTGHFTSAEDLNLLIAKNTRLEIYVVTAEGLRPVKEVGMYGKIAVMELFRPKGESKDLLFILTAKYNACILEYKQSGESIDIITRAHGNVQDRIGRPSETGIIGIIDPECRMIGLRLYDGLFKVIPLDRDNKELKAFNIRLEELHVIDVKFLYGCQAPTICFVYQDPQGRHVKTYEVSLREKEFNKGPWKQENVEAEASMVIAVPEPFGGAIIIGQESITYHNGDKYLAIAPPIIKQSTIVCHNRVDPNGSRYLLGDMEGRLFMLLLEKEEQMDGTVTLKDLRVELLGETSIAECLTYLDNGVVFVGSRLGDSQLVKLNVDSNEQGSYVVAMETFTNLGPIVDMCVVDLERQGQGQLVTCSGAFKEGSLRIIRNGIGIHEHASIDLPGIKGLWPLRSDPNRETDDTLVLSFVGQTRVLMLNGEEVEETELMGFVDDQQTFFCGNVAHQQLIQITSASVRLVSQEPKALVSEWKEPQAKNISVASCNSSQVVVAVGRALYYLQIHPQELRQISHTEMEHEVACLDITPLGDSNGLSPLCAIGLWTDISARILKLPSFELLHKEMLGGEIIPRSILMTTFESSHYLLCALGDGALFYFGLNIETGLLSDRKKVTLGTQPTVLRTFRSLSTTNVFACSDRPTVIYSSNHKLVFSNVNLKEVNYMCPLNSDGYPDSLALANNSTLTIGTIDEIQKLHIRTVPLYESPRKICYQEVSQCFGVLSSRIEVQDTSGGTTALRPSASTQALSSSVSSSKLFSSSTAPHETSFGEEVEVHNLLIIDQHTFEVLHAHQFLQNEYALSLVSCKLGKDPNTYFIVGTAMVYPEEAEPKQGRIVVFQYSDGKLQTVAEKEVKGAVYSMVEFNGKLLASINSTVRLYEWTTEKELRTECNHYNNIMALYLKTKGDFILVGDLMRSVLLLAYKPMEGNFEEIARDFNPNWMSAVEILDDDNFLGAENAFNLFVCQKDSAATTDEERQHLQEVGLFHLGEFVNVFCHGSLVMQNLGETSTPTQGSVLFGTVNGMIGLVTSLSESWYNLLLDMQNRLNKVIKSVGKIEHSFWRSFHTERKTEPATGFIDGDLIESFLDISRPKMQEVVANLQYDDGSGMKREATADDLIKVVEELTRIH
Experimental: Human CD4^+ T cells were isolated from fresh healthy leukopaks (Stemcell Technologies) using the RosetteSep Human CD4^+ T cell enrichment cocktail (Stemcell Technologies) and Ficoll density gradient centrifugation. Leukopaks were diluted with an equal volume of phosphate-buffered saline (PBS [Gibco]) supplemented with 2% fetal bovine serum (FBS, VWR Lifescience) and incubated with RosetteSep Human CD4^+ T cell enrichment cocktail for 20 minutes before layering on Ficoll-Paque Plus solution (GE Health Care). The cell-rich interface layer was harvested and washed twice with PBS supplemented with 2% FBS. Regulatory T cells were then isolated manually using the EasySep Human CD4 CD1271WCD25^+ Regulatory T cell isolation kit (Stemcell Technologies) according to the manufacturer's instructions. Cells were rested overnight in Roswell Park Memorial Institute (RPMI) 1640 media (Gibco) supplemented with 10% FBS, Pen/Strep (Gibco), MEM-NEAA (Gibco), and sodium pyruvate (Gibco) in a humidified incubator (37° C., 5% CO2). Cells were then stained for CD4 (clone: RPA-T4, Biolegend), CD25 (clone: 2A3, BD Biosciences), and CD127 (clone: hIL-7R-M21, BD Biosciences). CD4^+ CD127^lowCD25^+ cells were sorted on a BD FACS Aria Fusion sorter to a purity of 95% or greater. Sorted cells were immediately used or cryopreserved for downstream assays.
Fresh or cryopreserved FACS-sorted CD4^+ CD127^lowCD25^+ Treg cells were cultured at 25,000-50,000 cells/well of 96-well round bottom plates in RPMI 1640 media (Gibco) supplemented with 10% FBS, Pen/Strep (Gibco), MEM-NEAA (Gibco), and sodium pyruvate (Gibco). Cells were stimulated with Treg Xpander beads (Thermo Fisher) at cells-to-beads ratio of 1:4 in the presence of 500 U/mL recombinant human IL-2 (Proleukin). Compounds were added at titrated doses and cells were incubated at 37° C., 5% CO2 for 12-13 days. Recombinant human IL-2 and compound were replenished every 2-3 days during the entire culture duration. On day 12 or 13, cells were restimulated with phorbol 12-myristate 13-acetate (PMA) and ionomycin in the presence of the protein transport inhibitors brefeldin A and monensin (eBioscience Cell Stimulation Cocktail plus protein transport inhibitors, 500×, Catalog number 00-4975-93) before proceeding with flow cytometry staining and analysis.
For flow cytometry staining, cells were washed twice with flow cytometry staining buffer (Thermo Fisher) and incubated in Human Tru-stain Fc block (Biolegend) for 10 minutes before adding eFluor780 viability dye (Thermo Fisher) and surface marker antibody cocktail for 30 minutes at 4° C. Cells were then fixed and permeabilized by incubation with FoxP3 transcription factor staining buffer (Thermo Fisher) for 30 minutes at 4° C. as per the kit manufacturer's instructions. Cells were washed twice with the Perm/Wash buffer supplied in the kit as per the manufacturer's instructions and incubated overnight at 4° C. with an intracellular antibody cocktail comprised of antibodies specific for the transcription factors shown in Table C. Cells were washed twice with Perm/Wash buffer and resuspended in flow cytometry staining buffer (Thermo Fisher) prior to acquisition. Sample acquisition and analysis was performed using a BD LSRFortessa (BD Biosciences) flow cytometer. Single stain controls for each fluorochrome were prepared using UltraComp eBead Compensation Beads (Thermo Fisher). Data were analyzed using FlowJo version 10 and GraphPad Prism Software.
Table C-1 lists the maximum observed degradation of the IKZF2 protein and IKZF4 protein as measured in the Human Regulatory T Cell Reprogramming assay. The results in Table C-1 were rounded to two digits. In the Human Regulatory T Cell Reprogramming assay, a value of 100% indicated no detectable protein remaining or complete degradation of the protein; and a value of 0% indicated no detectable degradation of the protein by the test compound.

IKZF2 Helios = IKZF2 Helios (Homo sapiens, UniProt Q96SW2+Q9UKS7); test: Jurkat Cellular Degradation Assay (IKZF2 Helios); format: cell-based; design: endogenous in cells; conditions: Jurkat cells, 72 h; for DC50: concentration reducing protein level by 50% vs DMSO; for Dmax: human, 100% = no detectable protein remaining, read-out: IKZF2 Helios max % deg. observed
IKZF2 Helios, sequence (Q9UKS7 whole entry): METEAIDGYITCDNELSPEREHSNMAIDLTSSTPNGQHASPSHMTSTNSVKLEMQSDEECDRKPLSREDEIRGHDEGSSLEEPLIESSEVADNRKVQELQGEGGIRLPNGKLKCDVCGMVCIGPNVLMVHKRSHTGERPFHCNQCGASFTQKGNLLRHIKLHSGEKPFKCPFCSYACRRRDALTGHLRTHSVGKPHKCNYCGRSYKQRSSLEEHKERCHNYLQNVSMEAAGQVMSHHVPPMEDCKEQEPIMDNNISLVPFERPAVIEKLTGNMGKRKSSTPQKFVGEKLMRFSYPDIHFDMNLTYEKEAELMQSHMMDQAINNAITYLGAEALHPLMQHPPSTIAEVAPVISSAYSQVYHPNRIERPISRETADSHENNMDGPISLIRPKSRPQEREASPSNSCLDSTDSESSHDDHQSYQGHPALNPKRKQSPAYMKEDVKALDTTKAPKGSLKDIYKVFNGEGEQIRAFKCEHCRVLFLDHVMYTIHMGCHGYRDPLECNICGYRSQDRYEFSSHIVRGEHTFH
IKZF2 Helios, sequence (Q96SW2 whole entry): as the sequence (Q96SW2 whole entry) above
IKZF2 Helios, sequence (Q16531 whole entry partner): as the sequence (Q16531 whole entry partner) above
Experimental: Jurkat cells were plated at 80,000 cells/well in 40 μL RPMI+10% FBS in a 384-well cell culture plate prior to using acoustic dispensing technology for adding a compound of interest. Cell cultures were incubated for 72 h at 37° C. and 5% CO2. In order to facilitate analysis, cell cultures were spun down at 200 rpm for 5 min and the supernatant was discarded. After shaking the plate to dislodge the cell pellet, cells were resuspended in 50 μL of Fixation Buffer (eBioscience FoxP3 buffer set 00-5523-00) for 60 min at room temperature. After centrifuging and discarding the supernatant, cells were permeabilized with 50 μL of Permeabilization buffer (eBioscience FoxP3 buffer set 00-5523-00) for 10 min at room temperature. Following permeabilization, cells were spun down and the supernatant was replaced with 20 μL fluorescently labelled antibodies against Helios, Ikaros and Aiolos or corresponding Isotype controls in 1× Permeabilization buffer (Ikaros-Alexa488 [Biolegend, Cat #368408, 1:50], Helios-PE [CST, Cat #29360, 1:50], Aiolos-Alexa647 [Biolegend, Cat #371106 Biolegend, 1:25]) and staining reactions were incubated for 1 h at room temperature while protected from light. Subsequently, 30 μL of 1× Permeabilization buffer was added prior to centrifuging the cells and discarding the supernatant. Stained cells were resuspended in 25 μL of flow cytometry staining buffer [PBS+0.2% bovine serum albumin (BSA)] and analyzed using an Intellicyt Ique Plus flow cytometer.
Table A-1 lists the maximum observed degradation of the IKZF1 protein, IKZF2 protein, and IKZF3 protein as measured in the Jurkat Cellular Degradation assay. The results in Table A-I were rounded to two digits. In the Jurkat Cellular Degradation assay, a value of 100% indicated no detectable protein remaining or complete degradation of the protein; and a value of 0% indicated no detectable degradation of the protein by the test compound.

| DC50 (IKZF4 Eos) | Dmax (IKZF4 Eos) | DC50 (IKZF2 Helios) | Dmax (IKZF2 Helios) | SMILES |
| --- | --- | --- | --- | --- |
| 0.1 nM | 92% | 2.9 nM |  | O=C1CCC(N2Cc3c(ccc(-c4cc(CN5CC(c6ccccc6)C5)ccn4)c3F)C2=O)C(=O)N1 (centres unmarked) [Comparative Compound A, 3-(4-fluoro-1-oxo-5-(4-((3-phenylazetidin-1-yl)methyl)pyridin-2-yl)isoindolin-2-yl) piperidine-2,6-dione] |
| 1 nM | 95% | 8 nM | 90% | Nc1nc(-c2ccc3c(c2)CN(C2CCC(=O)NC2=O)C3=O)ccc1CN1CC2(CCC2)C1 (centres unmarked) [Comparative Compound B, 3-(5-(5-((2-azaspiro[3.3]heptan-2-yl)methyl)-6-aminopyridin-2-yl)-1-oxoisoindolin-2-yl) piperidine-2,6-dione] |
| 3.4 nM | 65% | 8.5 nM | 91% | Nc1nc(-c2ccc3c(c2F)CN(C2CCC(=O)NC2=O)C3=O)ccc1CN1CC2(CCCOC2)C1 (centres unmarked) [Example 1, 3-(5-(5-((6-oxa-2-azaspiro[3.5]nonan-2-yl)methyl)-6-aminopyridin-2-yl)-4-fluoro-1-oxoisoindolin-2-yl) piperidine-2,6-dione] |
